Assay results reported in US5756538A, “Flavonoid and biflavonoid derivatives, their pharmaceutical compositions, their anxiolytic activity” (University of Strathclyde, priority 1993, dated 1998).
pIC50, pKi: −log10 of the molar value. Where two headings read alike, the source gives them in different places.

Experiments:
mice [1] = experiment: Locomotor activity test (OPTO-VARIMEX)
Protocol: Male CF1 mice from our breeding stock weighing 28-35 g were used. The animals were placed in groups of 10-12 with free access to water and food, and maintained on a 12 h/12 h day-night cycle.
Diazepam (DZ; Hoffman-La Roche) and the flavonoids were dissolved in DMSO 40%, NaOH 0.1N (7:3: v/v) at pH 8.2 Control animals were injected with the same vehicle (VEH). RO 15-1788 (Hoffmann-La Roche) was suspended in DMSO 10%, propyleneglycol 10% in distilled water.
(c) Locomotor Activity Test: we used an OPTO-VARIMEX apparatus consisting of a glass box (36×15×20 cm) and two lateral bars with 15 light beams (0.32 cm diameter, beam spacing 2.65 cm). The apparatus detects automatically all the mouse movements, and discriminates between total and ambulatory activity. The locomotor activity (number of movements across the beams) was counted during 5 min. An increase in the number of transitions through the beams reflects an augmented locomotor activity.
The general procedure for all the tests is as follows: mice were injected with vehicle or the drug solution 20 min before the beginning of the test and put into another home cage. Ro 15-1788, a specific BZD receptor antagonist was injected 10 min before the tested drug. All the injections were given intraperitoneally (i.p.). Control mice were tested in each session, in parallel with those animals receiving the test drug or diazepam. Testing was carried out `blind`. All data were submitted to analysis of variance (ANOVA). Post-hoc comparisons between individual treatments and controls were made using Dunnett's t-test.
FIGS. 15, 16, 17 and 18 show ambulatory locomoter activity counts during a 5 min. test session in an OPTO-Varimex apparatus, 20 min. after i.p. injection with a mixture of brominated flavones (0.6,1,3 mg/kg), FIG. 15; 2' chlorinated chrysin (1,3 mg/kg); FIG. 16; 2' fluorinated chrysin (3 mg/kg), FIG. 17; 6,8 dibromoflavone, FIG. 18. Data are expressed as medians (interquartile range) of (n) number of animals.

benzodiazepine receptor = experiment: Competitive inhibition of 3H-flunitrazepam binding to benzodiazepine receptor (cerebral cortical membranes); parameters: species or system bovine
Protocol: (Competitive inhibition of H^3 -flunitrazepam to benzodiazepine receptor)
Binding of 3H-flunitrazepam (0.7 nM) to the benzodiazepine receptor was carried out in extensively washed cerebral cortical membranes.
H^3 -flunitrazepam has a Ki of […] to the benzodiazepine receptor.
IC50 values were obtained using flavonoids at different concentrations (10^-10 to 10^-3 M).
Structure - activity relationships of several flavonoids on
the ^3 H Flunitrazepam binding to bovine brain membranes.

mice [2] = experiment: Horizontal wire test (muscle relaxation); format: in vivo, mice (male CF1)
Protocol: (d) Horizontal Wire Test: It consisted of an horizontally strung wire (1 mm diameter, 15 cm long), placed at 20 cm from the table. Mice were lifted by the tail, allowed to grasp the wire with their forepaws and released. […] After two trials, performed at 5 min. intervals, the test took place. A myorelaxant drug, like diazepam at high doses, will impair the ability of mice to grasp the wire. Generally, this state of muscle relaxation is commonly associated with sedation.
(§1) All the injections were given intraperitoneally (i.p.). […] Testing was carried out `blind`. All data were submitted to analysis of variance (ANOVA).
The test took place after two trials, executed after a 5 min interval.

mice [3] = experiment: PTZ induced seizures in mice (anticonvulsant activity); format: in vivo
Protocol: (Induced seizures in mice)
Benzodiazepines in general show an anxiolytic effect, a sedative effect and an anticonvulsant effect. In order to assess the present compounds for anticonvulsant activity the following experiment was carried out.
The method of Medina et al Biochem.Pharm. 40 p2227-2231, (1990) was followed (with the exception that injections were carried out intraperitoneally) and the mice observed for seizures.
EFFECTS OF IP ADMINISTRATION OF APIGENIN ON PTZ
INDUCED SEIZURES IN MICE.
The convulsant doses of pentylenetetrazole are between 50-80 mg/kg in different experiments carried out in 6 independent days.

mice [4] = experiment: Elevated plus maze (anxiety); format: in vivo, mice (male CF1); conditions: for Total arm entries / Percentage of entries in the open arms / Percentage of the time spent on the open arms: 20 min after injection; for Total arm entries: 5 min test, mean ± S.E.M.
Protocol: (a) Elevated Plus Maze: consisted of 4 perpendicularly disposed wood arms (20×5 cm; two had 35 cm high wood walls, and two were open) linked by a central 10×10 cm square. The maze was suspended 50 cm from the room floor. Animals were placed on the central part of the maze facing a closed arm. This test has been widely validated to measure anxiety in rodents. The number of entries into and the time spent in the open and closed arms were counted during 5 min. […] Total exploratory activity (number of entries in both arms) was also determined.
as §1

[5] = test system: locus coeruleus noradrenaline; experiment: Noradrenaline levels in locus coeruleus after immobilization stress; format: in vivo, rats; conditions: 1 mg/kg i.p., 30 min before 90-min stress session
Protocol: Rats were submitted to a 90-minute immobilization stress session in a plastic cylinder. The locus coeruleus was dissected out after killing by decapitation and noradrenaline assessed by HPLC with electrochemical detection. Doses were 1 mg/kg for each substance, injected i.p., 30 minutes before the stress session.

mice [6] = experiment: Holeboard test (exploratory activity, sedation); format: in vivo, mice (male CF1)
Protocol: (b) Holeboard Test: consisted of a wood box (60×60×30 cm) with four 2 cm diameter holes equidistant in the floor. The number of head-dips and the time spent head-dipping were counted during 5 min. An increase in the number and the time spent head-dipping implies a greater exploratory activity.
as §1

[7] = bovine brain membranes, 0.7 nM 3H-flunitrazepam, read-out: 3H Flunitrazepam binding IC50
[8] = 3H-flunitrazepam 0.7 nM, read-out: IC50 at the benzodiazepine receptor

## 6,8 dibromoflavone
Mice [1]; i.p., dose not stated
  Ambulatory locomotor activity counts vs controls: No significant difference

## O=c1cc(-c2ccccc2Cl)oc2cc(O)cc(O)c12 [2' chlorochrysin, 5,7-Dihydroxy-2'-chloroflavone]
Benzodiazepine receptor; [7]
  pIC50: 5.05
Mice [1]; 1, 3 mg/kg i.p., 20 min after injection, 5 min session
  Ambulatory locomotor activity counts vs controls: No significant difference

## O=c1cc(-c2ccccc2F)oc2cc(O)cc(O)c12 [2' fluorochrysin, 5,7-Dihydroxy-2'-fluoroflavone]
Benzodiazepine receptor; [7]
  pIC50: 5.10
Mice [1]; 3 mg/kg i.p., 20 min after injection, 5 min session
  Ambulatory locomotor activity counts vs controls: No significant difference

## COc1cc(O)c2c(=O)cc(-c3ccccc3)oc2c1 [5 hydroxy 7 methoxyflavone, 5-hydroxy-7-methoxyflavone]
Benzodiazepine receptor; [7]
  pIC50: 4.34

## O=c1cc(-c2ccccc2)oc2c(Br)c(O)c(Br)c(O)c12 [6,8 dibromochrysin, 6,8-Dibromo-5,7-dihydroxyflavone]
Benzodiazepine receptor
  Benzodiazepine ligand behaviour / affinity relative to 3H-flunitrazepam: benzodiazepine ligand behaviour similar to that of ^3 H-flunitrazepam
Benzodiazepine receptor; [8]
  pIC50: 5.52 to 6.15
Benzodiazepine receptor; [7]
  pIC50: 6.15

## O=c1cc(-c2ccccc2)oc2cc(Br)ccc12 [7-bromoflavone]
Benzodiazepine receptor
  Benzodiazepine ligand behaviour / affinity relative to 3H-flunitrazepam: far higher affinity for the benzodiazepine receptor
Benzodiazepine receptor; [8]
  pIC50: 7.30
Benzodiazepine receptor; [7]
  pIC50: 7.30
Mice [1]; i.p., dose not stated
  Ambulatory locomotor activity counts vs controls: No significant change

## O=c1cc(-c2ccc(O)c(-c3c(O)cc(O)c4c(=O)cc(-c5ccc(O)cc5)oc34)c2)oc2cc(O)cc(O)c12 [Amentoflavone]
Benzodiazepine receptor
  Benzodiazepine ligand behaviour / affinity relative to 3H-flunitrazepam: far higher affinity for the benzodiazepine receptor
Benzodiazepine receptor; [8]
  pIC50: 8.00
Benzodiazepine receptor; [7]
  pIC50: 8.00

## O=c1cc(-c2ccc(O)cc2)oc2cc(O)cc(O)c12 [Apigenin, 4', 5,7-trihydroxyflavone]
Mice [2]; 3 and 10 mg/kg i.p.
  Effect in the horizontal wire test: did not induce any effect
Mice [3]; 3 mg/kg i.p. + PTZ
  Number of animals with clonic convulsions: 8/8
Mice [3]; 20 mg/kg i.p. + PTZ
  Number of animals with clonic convulsions: 3/3
Mice [3]; 40 mg/kg i.p. + PTZ
  Number of animals with clonic convulsions: 12/14
Mice [3]; 80 mg/kg i.p. + PTZ
  Number of animals with clonic convulsions: 11/11
Mice [3]; i.p., PTZ induced seizures
  Anticonvulsant activity: no anticonvulsant activity
Mice [4]; i.p.
  Anxiolytic effect in the elevated plus maze: shows anxiolytic effects
[5]
  Noradrenaline decrease in locus coeruleus provoked by immobilization stress: blocked almost completely the noradrenaline decrease
  Potency vs diazepam on stress-provoked noradrenaline decrease: most potent effect
[5]; listed as apigenin
  Noradrenaline decrease in locus coeruleus provoked by immobilization stress: dampened the noradrenaline decrease
Benzodiazepine receptor
  Benzodiazepine ligand behaviour / affinity relative to 3H-flunitrazepam: benzodiazepine ligand behaviour similar to that of ^3 H-flunitrazepam
Benzodiazepine receptor; [8]
  pIC50: 5.52 to 6.15
Benzodiazepine receptor; [7]
  pIC50: 5.52
Mice [6]; 3 and 10 mg/kg i.p.
  Effect in the holeboard test: did not induce any effect

## CN1C(=O)CN=C(c2ccccc2)c2cc(Cl)ccc21 [Diazepam, reference compound]
Mice [2]; 6 mg/kg i.p.
  Percentage of animals grasping the horizontal wire: significantly decreased
Mice [3]; 3 mg/kg i.p. + PTZ
  Number of animals with clonic convulsions: 0/6
Mice [4]; 0.3 mg/kg i.p.
  Total arm entries: 10.5 ± 0.8
Mice [4]; 0.6 mg/kg i.p.
  Total arm entries: 12.4 ± 1.9
Mice [4]; 0.3 and 0.6 mg/kg i.p.
  Percentage of entries in the open arms: increased the percentage of entries in the open arms (p<0.01)
  Percentage of the time spent on the open arms: the percentage of the time spent on the open arms (p<0.01)
Mice [4]; i.p.
  Anxiolytic effect in the elevated plus maze: displayed an anxiolytic effect
Mice [4]; i.p., doses of Table I
  Total arm entries, difference from controls: No differences were observed
Mice [6]; 0.3 mg/kg i.p.
  Number of head-dips: increased the number of head-dips (p<0.05)
Mice [6]; 1 mg/kg i.p.
  Time spent head-dipping: increased the time spent head-dipping(p<0.01)
Mice [6]; 6 mg/kg i.p.
  Number of head-dips: decrease in both the number of head-dips and in the time spent head-dipping (p<0.01)
  Sedation: indicates sedation
  Time spent head-dipping: decrease in both the number of head-dips and in the time spent head-dipping (p<0.01)
Mice [1]; 0.3-3 mg/kg i.p., 20 min after injection
  Locomotor activity: increasing locomotor activity

## O=c1cc(-c2ccccc2)oc2ccccc12 [Flavone, 2-phenyl-4H-1-benzopyran-4-one]
Mice [4]; 1 mg/kg i.p.
  Percentage of entries in the open arms: increased the percentage of entries and time spent in the open arms (p<0.002)
  Percentage of the time spent on the open arms: increased the percentage of entries and time spent in the open arms (p<0.002)
Benzodiazepine receptor
  Benzodiazepine ligand behaviour / affinity relative to 3H-flunitrazepam: benzodiazepine ligand behaviour similar to that of ^3 H-flunitrazepam
Benzodiazepine receptor; [8]
  pIC50: 5.52 to 6.15
Benzodiazepine receptor; [7]
  pIC50: 6.00

## COc1cc(O)c2c(=O)cc(-c3ccc(OC)c(-c4c(O)cc(O)c5c(=O)cc(-c6ccc(O)cc6)oc45)c3)oc2c1 [Ginkgetin]
Benzodiazepine receptor; [7]
  pIC50: 5.30

## CN1C(=O)CN=C(c2ccccc2F)c2cc([N+](=O)[O-])ccc21 [H^3 -flunitrazepam, reference compound]
Benzodiazepine receptor
  pKi: 8.52

## COc1ccc(-c2cc(=O)c3c(O)cc(O)c(-c4cc(-c5cc(=O)c6c(O)cc(O)cc6o5)ccc4OC)c3o2)cc1 [Isoginkgetin]
Benzodiazepine receptor; [7]
  pIC50: 5.30 to 5.40

## O=c1c(O[C@@H]2O[C@H](CO)[C@@H](O)[C@H](O)[C@H]2O)c(-c2ccc(O)c(O)c2)oc2cc(O)cc(O)c12 [Isoquercetin, reference compound]
Benzodiazepine receptor; [7]
  pIC50: 5.00

## O=c1c(O[C@@H]2O[C@H](CO)[C@@H](O)[C@H](O)[C@H]2O)c(-c2ccc(O)c(O)c2)oc2cc(O)cc(O)c12 [Isoquercitrin, reference compound]
Benzodiazepine receptor; [7]
  pIC50: 4.10

## C[C@@H]1O[C@@H](OC[C@H]2O[C@@H](Oc3c(-c4ccc(O)c(O)c4)oc4cc(O)cc(O)c4c3=O)[C@H](O)[C@@H](O)[C@@H]2O)[C@H](O)[C@H](O)[C@H]1O [Rutin, reference compound]
Benzodiazepine receptor; [7]
  pIC50: 4.22

## O=C1CC(c2ccccc2)Oc2ccccc21 (centres unmarked) [flavanone, reference compound]
Benzodiazepine receptor; [7]
  pIC50: 4.40
